Values after ≈ are worked out from the molar mass of the structure shown. Bridge positions count the residues as written; N and C are the ends. Ends that are not written are not given here. Peptide text beside a SMILES is read from it. I, II: the chains in the order shown.
What was measured:
F. solani ATCC36031 = experiment: microbe, parasite or virus in culture; format: cell-based; conditions: ATCC36031, 48 h
C. albicans ATCC2091 = experiment: microbe, parasite or virus in culture; format: cell-based; conditions: ATCC2091, 48 h; read-out: MIC
Procedure: (§1) The yeast strains were cultivated and suspended in Sabouraud’s Dextrose (SD) broth diluted to one sixth at a starting OD600 = ∼0.08 in a flat-bottomed microtitre plate. A serial dilution of peptide in the same broth was mixed with the inoculum to give a final peptide concentration of 0.4–22 µM. The antifungal activity was assessed by monitoring the OD600 in cycles of 30 minutes and an orbital shaking at 100 rpm using an Infinite M200 microplate reader (Tecan Group Ltd., Switzerland) for 24/48 h at 37°C. Cultures without peptides were used as positive controls and broth alone or with 22 µM peptide served as negative controls. The minimum concentration required for complete inhibition was assessed by both visible observations as well as by measuring the OD600 and taken as the MIC. Each experiment was repeated in triplicates. For studying the effects of metal ions, SD broth was adjusted with appropriate concentrations of salts to yield a final concentration of 100 and 135 mM for NaCl and KCl and 0.5–2 mM for CaCl2 and MgCl2. MIC determinations were carried out as described above. C. albicans ATCC10231 cells and salts in broth were taken as a positive control. Salts alone (NaCl, KCl, and CaCl2 and MgCl2) in broth or with 22 µM peptide served as a negative control. The effect of 5% human serum on the activities of B4010 against two C. albicans clinical isolates was determined. The human male serum was centrifuged at 13,000 rpm for 10 mins in order to remove the lipids and the supernatant was collected. The MIC values against clinical isolates of C. albicans 2672R and C. albicans 1976R were determined both in standard medium (SD broth) as well as in standard medium containing 5% serum supernatant as before.

C. albicans DF2672R = experiment: microbe, parasite or virus in culture; format: cell-based; conditions: DF2672R, 48 h; read-out: MIC
Procedure: as §1

C. albicans ATCC10231 = experiment: microbe, parasite or virus in culture; format: cell-based; conditions: ATCC10231, 48 h; read-out: MIC
Procedure: as §1

C. albicans DF1976R = experiment: microbe, parasite or virus in culture; format: cell-based; conditions: DF1976R, 48 h; read-out: MIC
Procedure: as §1

C. albicans ATCC24433 = experiment: microbe, parasite or virus in culture; format: cell-based; conditions: ATCC24433, 48 h; read-out: MIC
Procedure: as §1

[1] = format: biochemical
Procedure: Small unilamellar vesicles (SUVs) were prepared using PC/PE/PI or PS lipids (5∶2.5∶2.5) containing 15 wt% ergosterol or PC/Cholesterol (10∶1). For the preparation of PC/PE/PI or PS/Erg SUV, the lipids were dissolved in chloroform/methanol (2∶1, v/v) in a glass tube. Ergosterol was dissolved in same solvent and added to lipid mixture to make final ergosterol content of 15 wt%. The Lipid-ergosterol mixture was dried using nitrogen gas to form lipid layer. The film was hydrated in a buffer containing 20 mM PBS (pH 7), vortexed and sonicated. Each cycle of sonication (5 sec, 40°C) was followed by freezing in liquid nitrogen and thawing on a water bath kept at 37°C. The procedure was repeated 5–6 times until an optically clear dispersion appeared. The SUV was divided into two parts. To the first part 50 mM calcein was added and incubated for 1 h. The excess calcein was removed by injecting 100 µL of the calcien-loaded SUV’s into a Ultrahydrogel™ 250 (7.8 mm × 300 mm) column equilibrated with 20 mM PBS (pH 7.0) and eluted isochratically at a flow rate of 1 mL/min for 1.5 column volumes. The calcein-loaded liposomes were mixed with calcein-free liposome (1∶1) to adjust final liposome concentration. Peptide concentration was added to obtain 1∶30 or 1∶15 peptide:liposome ratio. Changes in the fluorescence signal after addition of peptide or Triton X-100 was measured on a PTI spectrofluorometer, using an excitation wavelength of 480 nm and emission wavelength of 512 nm. The Percentage calcein released at each time point was calculated using the equation, [drawing 1]
Where A0 is the observed fluorescence intensity upon addition of peptides, Amin is the average intensity at the baseline (before peptide addition), Amax is the average intensity at the saturation phase after adding 1% Triton X-100. Similar protocol was followed for the preparation of PC/Cholesterol SUVs.

Compound: CC(C)[C@H](NC(=O)[C@H](CCCCN)NC(=O)[C@H](CCCNC(=N)N)NC(=O)CNC(=O)[C@@H](N)CCCNC(=N)N)C(=O)N[C@H](C(=O)N[C@@H](CCCNC(=N)N)C(=O)N[C@@H](CCCNC(=N)N)C(=O)NCCCC[C@H](NC(=O)[C@H](CCCNC(=N)N)NC(=O)[C@H](CCCNC(=N)N)NC(=O)[C@@H](NC(=O)[C@@H](NC(=O)[C@H](CCCCN)NC(=O)[C@H](CCCNC(=N)N)NC(=O)CNC(=O)[C@@H](N)CCCNC(=N)N)C(C)C)C(C)C)C(=O)N[C@@H](CCCCN)C(=O)O)C(C)C [B2088] (I: H-RGRKVVRRKK-OH / II: H-RGRKVVRR; amide I:9-II:C; N-terminus and C-terminus assumed)
- MIC (F. solani ATCC36031): 10.9 µM (≈ 25 µg/mL)
- MIC (C. albicans ATCC2091): 1.4 µM (≈ 3.21 µg/mL)
- MIC (C. albicans DF2672R): 0.8 µM (≈ 1.83 µg/mL)
- MIC (C. albicans ATCC10231): 5.5 µM (≈ 12.6 µg/mL)
- MIC (C. albicans DF1976R): 0.8 µM (≈ 1.83 µg/mL)
- MIC (C. albicans ATCC24433): 2.7 µM (≈ 6.19 µg/mL)
- calcein release relative to B4010 [1]: decreased calcein release

Compound: CC(C)[C@H](N)C(=O)N[C@@H](CCCNC(=N)N)C(=O)NCC(=O)N[C@@H](CCCNC(=N)N)C(=O)N[C@H](C(=O)N[C@@H](CCCNC(=N)N)C(=O)N[C@@H](CCCCN)C(=O)N[C@@H](CCCNC(=N)N)C(=O)NCCCC[C@H](NC(=O)[C@H](CCCNC(=N)N)NC(=O)[C@H](CCCCN)NC(=O)[C@H](CCCNC(=N)N)NC(=O)[C@@H](NC(=O)[C@H](CCCNC(=N)N)NC(=O)CNC(=O)[C@H](CCCNC(=N)N)NC(=O)[C@@H](N)C(C)C)C(C)C)C(=O)NCCCC[C@H](NC(=O)[C@H](CCCCNC(=O)[C@H](CCCNC(=N)N)NC(=O)[C@H](CCCCN)NC(=O)[C@H](CCCNC(=N)N)NC(=O)[C@@H](NC(=O)[C@H](CCCNC(=N)N)NC(=O)CNC(=O)[C@H](CCCNC(=N)N)NC(=O)[C@@H](N)C(C)C)C(C)C)NC(=O)[C@H](CCCNC(=N)N)NC(=O)[C@H](CCCCN)NC(=O)[C@H](CCCNC(=N)N)NC(=O)[C@@H](NC(=O)[C@H](CCCNC(=N)N)NC(=O)CNC(=O)[C@H](CCCNC(=N)N)NC(=O)[C@@H](N)C(C)C)C(C)C)C(=O)N[C@@H](CCCCN)C(=O)O)C(C)C [Sc_B4010] (I: H-VRGRVRKRKKK-OH / II: H-VRGRVRKRK / III: H-VRGRVRKR / IV: H-VRGRVRKR; amide I:9-IV:C, I:10-II:C, II:9-III:C; N-terminus and C-terminus assumed)
- MIC (C. albicans ATCC2091): 2.7 µM (≈ 12.3 µg/mL)
- MIC (C. albicans DF2672R): 0.8 µM (≈ 3.65 µg/mL)
- MIC (C. albicans ATCC10231): 5.6 µM (≈ 25.6 µg/mL)
- MIC (C. albicans DF1976R): 0.8 µM (≈ 3.65 µg/mL)
- MIC (C. albicans ATCC24433): 5.6 µM (≈ 25.6 µg/mL)
- calcein release relative to B4010 [1]: decreased calcein release

Compound: RGRKVVRRKK [Monomer]
- MIC (F. solani ATCC36031): >78 µM
- MIC (C. albicans DF2672R): 78 µM
- MIC (C. albicans ATCC10231): 78 µM

Compound: RGRKVVRRKKRRVVKRGR [Linear Retrodimer]
- MIC (C. albicans ATCC2091): 11 µM
- MIC (C. albicans DF2672R): 2.7 µM
- MIC (C. albicans ATCC10231): 22 µM
- MIC (C. albicans DF1976R): 2.7 µM
- MIC (C. albicans ATCC24433): 5.5 µM

Source: PMC3912015, “Synthetic Multivalent Antifungal Peptides Effective against Fungi” (PLoS ONE, 2014)
